Assays:
[1] = tested on: lysyl hydroxylase; test: Lysyl hydroxylase activity in extracts of treated human skin fibroblasts (Example 1, tritium-release assay); format: cell-based; settings: for Lysyl hydroxylase activity (%): 1% ethanol
Method: Cultures of human skin fibroblasts grown to confluence were incubated for 72 h in medium supplemented with 1% ethanol containing various concentrations of minoxidil or deoxyminoxidil as indicated. Cells were then harvested, and the enzyme activities in extracts of these cells were measured by tritium-release assays (Murad and Pinnell, J. Biol. Chem. 262:11,973 (1987)). The results are expressed as percentages of zero-concentration values.
Cultures of human skin fibroblasts grown to confluence were incubated for 72 h in medium supplemented with 1% ethanol containing various concentrations of minoxidil or with 1% acetone containing various concentrations of minoxidil sulfate, as indicated. Cells were then harvested, and the enzyme activities in extracts of these cells were measured by tritium release assays (Murad and Pinnell, J. Biol. Chem. 262:11,973 (1987)). The results are expressed as percentages of zero-concentration values.
Skin fibroblast cultures derived from an apparently normal child (GM05659) were obtained from the Institute for Medical Research, Camden, N.J. The cells were subcultured by trypsinization and used before 25 population doublings. Typically, 4×10^5 cells were seeded onto 100-mm (diameter) plastic petri dishes and allowed to grow in 10 ml of Dulbecco's modified Eagle's minimum essential medium containing 5.6 mM glucose, buffered in pH 7.4 with 24 mM sodium biocarbonate/25 mM Hepes and supplemented with 20% (v/v) calf serum which had been inactivated for 30 min at 56° C. The cells were incubated at 37° C. in a humidified atmosphere of 5% CO2 plus 95% air.
After a week, the medium was replaced with medium supplemented with 0.5% heat-inactivated diaylzed calf serum, and the incubation was continued for 72 h in the presence of minoxidil or one of its structural analogs. The compounds were dissolved in 95% ethanol, except minoxidil sulfate which was dissolved in acetone; the final solvent concentration was 1% (v/v). During the last 3 h of incubation, cells received 100 μM Na L-ascorbate to ensure complete hydroxylation of the polypeptide precursors of precollagen (Murad et al, J. Invest. Dermatol. 75:404 (1980)).
The medium was then removed and the cells were washed twice with a solution containing 0.14 M NaCl, 5 mM KCl, 0.3 mM Na2 PO4, and 0.4 mM KH2 PO4, adjusted to pH 7.4. The cells were detached from the plates with a solution containing 0.05% trypsin, 0.54 mM EDTA, 5.5mM glucose, 6.90mM NaHCO3, […], and 5 mM KCl. The trypsinization was terminated with 2 vol of 20% serum-supplemented medium, and the cell number in an aliquot of the suspension was determined using a Coulter counter.
The detached cells were collected by centrifugation at 500g for 6 min at 4° C. washed twice by suspending in phosphate-buffered NaCl/KCl as above, and then centrifuged. The cell pellet was suspended in a medium (1 ml/5×10^6 cells) containing 0.2 M NaCl, 0.1 M glycine, 50 μM dithiothreitol, 20 mM Tris-HCl, buffer (pH 7.5), 0.1% Triton X-100, and 0.01% soybean trypsin inhibitor. The suspension was sonicated for 30 s using a Branson sonifier cell disrupter. The lysate was centrifuged at 27,000g for 1 h at 4° C., and the resulting supernatant was used for prolyl and lysyl hydroxylase assays (Murad and Pinnell, J. Biol. Chem. 262:11, 973 (1987)). The enzyme activities are based on a unit of soluble cell protein.
The protein content of cell extracts was determined by a dye-binding technique using Bio-Rad reagent and protein standard (Bradford, Anal. Biochem. 72:248 (1976)).
Note: Cultures of human skin fibroblasts grown to confluence were
incubated for 72 h in medium supplemented with 1% ethanol containing 1 mM
of the indicated compounds. Cells were then harvested, and the enzyme
activity in extracts of these cells was measured by a tritiumrelease
incubated for 72 h in medium supplemented with 1% ethanol containing 1 nM

[2] = tested on: prolyl hydroxylase; test: Prolyl hydroxylase activity in fibroblasts treated with minoxidil and its hydroxy derivatives (Example 3); format: cell-based, human; settings: 1 mM
Method: Culture of human skin fibroblasts derived from an apparently normal adult were grown to confluent densities in Dulbecco's modified Eagle's medium supplemented with 10% (v/v) fetal calf serum. Thereafter, the medium was replaced with medium supplemented with 0.5% dialyzed fetal calf serum. The cultures were treated for 72 hr with 1 mM minoxidil, 3'- hydroxyminoxidil,or 4'-hydroxyminoxidil (Upjohn) dissolved in aqueous medium. In some experiments, minoxodil was dissolved in 95% (v/v) ethanol; the final concentration of minoxidil was 0.3 mM and that of ethanol was 0.3%. Cultures treated with ethanol only served as the control.
During the last 3 hr of treatment, cultures received 100 μM ascorbic acid. The enzyme activities in extracts of treated cells were measured by tritium-release assays described previously (Murad and Pinnell, J. Biol. Chem. 262:11,973 (1987)).

[3] = tested on: Lysyl Hydroxylations in Human Skin Fibroblasts; test: Hydroxylation of lysine residues in type I procollagen (Hyl/Lys); format: cell-based; settings: 0.3 M, 72 hr

SMILES: Nc1cc(N2CCCCC2)nc(N)[n+]1[O-] [Minoxidil]
- Lysyl hydroxylase activity (%) ([1]; 1 nM, 72 h, % of ethanol-treated controls (Table II)): 19-39%
- Lysyl hydroxylase activity (%) ([1]; 1 mM, 72 h, % of solvent-treated controls (Table I)): 28%
- decrease of the level of lysyl hydroxylase activity ([1]; 72 h, 1 mM (Table I text)): 72%
- IC50 ([1]; cultured fibroblasts, 72 h (FIG. 2), read-out: concentration required for 50% inhibition (lysyl hydroxylase)): 118 µM
- prolyl hydroxylase activity (in words) ([2]; 72 hr): remained unchanged
- Prolyl Hydroxylase Activity ([2]; 72 hr (Table VI)): 29446 cpm ^3 H2 O/mg protein
- Prolyl Hydroxylase Activity ([2]; 72 hr (description table)): 29446 cpm^3 H2 O/mg protein
- Hyl/Lys ([3]; type I procollagen chains isolated by gel electrophoresis, mean ± range (Table IV)): 0.08 ± 0.02
- Hyl/Lys ([3]; type I procollagen isolated by column chromatography (Table IV)): 0.17

— patent US5328913A, “Minoxidil analogs as inhibitors of cell proliferation and lysyl hydroxylase” (priority 1992, dated 1994)
